Results as given in the supplement of paper PMC10307832.

Tests used:
Test in all cases: relative viability (nuclei count vs DMSO), 5 days (fraction); higher = more cells survive
[1] = compound: O=C(O)c1ccc2c(c1)nc(Nc1cccc(Cl)c1)c1ccncc12 [Silmitasertib] + CC(=O)c1c(C)c2cnc(Nc3ccc(N4CCNCC4)cn3)nc2n(C2CCCC2)c1=O [Palbociclib] (partner 0.5 µM)
In short: (§1)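 Relative viability divides the nuclei count in treated wells by that in vehicle wells. Lung cancer cell lines were seeded in 1536-well plates, dosed by pin tool the next day, and fixed and stained after 5 days in one step with final 0.05% Triton X-100, 1% formaldehyde and 1 ug/ml Hoechst. Dosing was a single drug or a fixed anchor-drug dose plus five library-drug doses (not always all listed) in √10 steps, and values are medians of duplicate plates imaged at 4×.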

[2] = compound: O=C(O)c1ccc2c(c1)nc(Nc1cccc(Cl)c1)c1ccncc12 [Silmitasertib] + Nc1nc2[nH]cc(CCc3ccc(C(=O)N[C@@H](CCC(=O)O)C(=O)O)cc3)c2c(=O)[nH]1 [Pemetrexed] (partner 0.2 µM)
In short: as §1

[3] = compound: O=C(O)c1ccc2c(c1)nc(Nc1cccc(Cl)c1)c1ccncc12 [Silmitasertib] + CC(C)C[C@H](NC(=O)[C@H](Cc1ccccc1)NC(=O)c1cnccn1)B(O)O [Bortezomib] (partner 0.002 µM)
In short: as §1

[4] = compound: O=C(O)c1ccc2c(c1)nc(Nc1cccc(Cl)c1)c1ccncc12 [Silmitasertib] + Nc1ncn([C@H]2C[C@H](O)[C@@H](CO)O2)c(=O)n1 [Decitabine] (partner 2 µM)
In short: as §1

[5] = compound: O=C(O)c1ccc2c(c1)nc(Nc1cccc(Cl)c1)c1ccncc12 [Silmitasertib] + COc1cc2c(Oc3ccc(NC(=O)C4(C(=O)Nc5ccc(F)cc5)CC4)cc3F)ccnc2cc1OCCCN1CCOCC1 [Foretinib] (partner 0.25 µM)
In short: as §1

Cell Line	relative viability ([1]; first compound 0.04 µM)	relative viability ([1]; first compound 0.4 µM)	relative viability ([1]; first compound 1.265 µM)	relative viability ([1]; first compound 4 µM)	relative viability ([2]; first compound 0.04 µM)	relative viability ([2]; first compound 0.4 µM)	relative viability ([2]; first compound 1.265 µM)	relative viability ([2]; first compound 4 µM)	relative viability ([3]; first compound 0.04 µM)	relative viability ([3]; first compound 0.4 µM)	relative viability ([3]; first compound 1.265 µM)	relative viability ([3]; first compound 4 µM)	relative viability ([4]; first compound 0.04 µM)	relative viability ([4]; first compound 0.4 µM)	relative viability ([4]; first compound 1.265 µM)	relative viability ([4]; first compound 4 µM)	relative viability ([5]; first compound 0.04 µM)	relative viability ([5]; first compound 0.4 µM)	relative viability ([5]; first compound 1.265 µM)	relative viability ([5]; first compound 4 µM)
HCC-44	0.975	1.06	1.01	0.959	0.63	0.667	0.71	0.661	0.858	0.753	0.883	0.49	0.933	0.929	1.01	0.825				
HCC-78	0.521	0.432	0.497	0.455	0.91	0.886	0.613	0.918	0.609	0.333		0.551	0.64	0.603	0.381	0.613	0.503	0.523	0.457	0.621
IA-LM									0.879	0.632	1.01	0.586					1.1	0.886	1.14	0.716
LK-2	0.593		0.509	0.397	0.254		0.084	0.297					0.312		0.194	0.21	1.07		1.08	0.818
NCI-H358	0.133	0.128	0.134	0.125	0.186	0.164	0.18	0.131					0.22	0.217	0.199	0.199	0.876	0.573	0.653	0.474
NCI-H522	1.02	0.801	0.903	1.04	0.986	0.846	1	1.15					0.653	0.62	0.69	0.655				
NCI-H596					0.523	0.502	0.54	0.472	1	0.818	1.02	0.751	0.909	1.05	1.05	0.785	0.817	0.74	0.787	0.871
NCI-H727	0.64	0.529	0.648	0.681					1	0.608	0.736	0.516	1.09	0.844	0.544	0.691	0.915	0.689	0.695	1.03
NCI-H1395	0.631	0.617	0.592	0.597	0.975	0.756	0.841	0.654					0.756	0.725	0.684	0.683	0.894	0.805	0.97	0.972
NCI-H1563					0.871	0.844		0.693	0.932	0.903	0.844	0.821					0.96	0.952	0.879	0.974
NCI-H1703									0.352	0.278	0.294	0.193					0.348	0.375	0.359	0.415
NCI-H1792	0.674	0.574	0.708	0.698	0.772	0.78	0.78	0.331	0.943	0.68	0.53	0.864	0.6	0.492	0.529	0.515				
NCI-H1793	0.309	0.319	0.32	0.303	1.08	0.851	0.719	0.425					0.499	0.458	0.493	0.419	0.757	0.62	0.427	0.607
NCI-H1944	0.335	0.359	0.314	0.383	0.551	0.447	0.615	0.77					0.442	0.467	0.46	0.497	0.924	0.768	0.92	1
NCI-H2170	0.371	0.284	0.363	0.344	0.271	0.258	0.25	0.282					0.477	0.46	0.457	0.441	1.01	0.881	0.916	1.01
NCI-H2228	1.02	0.313	0.467	0.701	0.331	0.337	0.333	0.307	1.46	0.92	0.912	1.13					1		0.926	1.1
SK-MES-1	0.359	0.322	0.253	0.275	1.03	1.02	0.763	0.339					0.396	0.382	0.328	0.209	1.12	0.885	0.946	0.535
SW 900	0.538	0.624	0.507	0.492	0.493	0.463	0.464	0.258					0.499	0.422	0.377	0.347	1.05	0.477	0.817	0.424
